Entries after “also recorded” stand apart in the source; their conditions may differ.
Experiments:
[1] = Cellular toxicity assay, Huh-7 cells; assay type: cell-based; conditions: human, compared to cycloheximide (+ control)
Method: The toxicity of the compounds was assessed in human PBM, CEM (human lymphoblastoid), and Huh-7 cells, as described previously (see Schinazi R. F., Sommadossi J.-P., Saalmann V., Cannon D. L., Xie M.-Y., Hart G. C., Smith G. A. & Hahn E. F. Antimicrob. Agents Chemother. 1990, 34, 1061-67). Cycloheximide was included as positive cytotoxic control, and untreated cells exposed to solvent were included as negative controls. The cytotoxicity IC50 was obtained from the concentration-response curve using the median effective method described previously (see Chou T.-C. & Talalay P. Adv. Enzyme Regul. 1984, 22, 27-55; Belen'kii M. S. & Schinazi R. F. Antiviral Res. 1994, 25, 1-11).

[2] = system: high-fat-fed C57BL/6 mice; assay: High-fat-diet-fed C57BL/6 mice treated with Compound 1 and/or antagomiR-122; assay type: in vivo
Method: C57BL/6 mice were fed a 50% high fat diet (HFD) for four weeks. The control cohort received three hydrodynamic tail vein injections of a 5 μg antagomiR-control and six i.p injections of saline over three weeks. A second cohort was hydrodynamic tail vein injected with 5 μg antagomiR-122 (the reverse complement that inhibits activity of miR-122) three times and i.p injections of saline six times over three weeks. A third cohort was injected i.p. with Compound 1 (7.5 mg/kg) twice a week plus antagomiR-control once a week over the course of 3 weeks. The final cohort was injected i.p. with Compound 1 (7.5 mg/kg) twice a week plus antagomiR-122 injections once a week over the course of 3 weeks.
Male C57BL/6J mice, 7 to 8 weeks old, were housed randomly in standard cages and were fed a HFD, or atherogenic diet (consisting 1% Chol and 0.5% cholic acid, see also Table 6). All mice had free access to water during the experimental period. During the feeding period body weight was monitored every 3 days. In the HFD experiment, after 4 or 6 weeks, the resultant obese mice were treated with antagomiR-122 (5 μg/mouse once a week for 3 weeks), or i.p. injected with Compound 1 (RORα agonist, 7.5 mg/kg twice a week for 3 weeks; or 15 mg/kg 3 times a week for 3 weeks). The obese control (HFD) group was administered only saline with DMSO and antagomiR-control. After 3 weeks of treatment mice were sacrificed and livers were taken for RNA-seq analysis. Livers, white adipose, and skeletal muscle tissues were frozen in liquid nitrogen or in optimum cutting temperature embedded frozen blocks, for further RNA and histologic analysis. In the atherogenic diet experiment mice were treated with 15 mg/kg Compound 1 after 3 weeks with the diet. After 3.5 weeks of treatment, mice were sacrificed, and the livers were frozen in liquid nitrogen or in optimum cutting temperature embedded frozen blocks. Plasma was collected from atherogenic diet-fed mice and saved in −20° C. for ALT and AST analysis using the Reflotron® Analyzer and test-strips (Roche).
In the HFD experiment, after 4 or 6 weeks, the resultant obese mice were treated with antagoMIR122 (5 μg/mouse once a week for 3 weeks), or i.p. injected with Compound 1 (RORα agonist, 7.5 mg/kg twice a week for 3 weeks; or 15 mg/kg 3 times a week for 3 weeks). The obese control (HFD) group was administered only saline with DMSO and antagomiR-control.
Mice were fed with a 50% HFD and after 4 weeks, when fatty liver was already established, they were treated with Compound 1, antagoMIR122 or both compounds together for an additional 3 weeks. […] The weighing of mice began at week 3, one week before treatments were initiated. […] The liver weight of the mice was in accordance with their body weight.

[3] = system: RORα-regulated genes; assay: Modulation of RORα-regulated genes in healthy C57BL/6 mice, single injection; assay type: in vivo
Method: Healthy C57BL/6 mice were injected i.p. once with 7.5 mg/kg Compound 1 or saline control. Mice were sacrificed at 1, 2, and 7 day time points post-injection. miR-122 and Gpase 6 mRNA levels were determined by qRT-PCR for each time point. MicroRNA levels were normalized to RNU6; plasma miR-122 was normalized to spiked in C. elegans miR-39; and mRNA levels were normalized to HPRT.
Compound 1 and AntagomiR injections to mice. C57BL/6 male mice, 7-8 weeks old, or Sgp130FC, 9-month-old male mice, were injected i.p. with 7.5 mg/kg Compound 1 dissolved in saline and 3% DMSO. Saline was injected as control. Mice were hydrodynamic tail vain injected with antagomiR-122 or antagomiR-control (negative control) (5 μg/mouse in 1.5 ml saline). Mice were sacrificed according to the legend of the figure describing the experimental results and the livers, white adipose and skeletal muscle tissues were frozen in liquid nitrogen or in OCT embedded frozen blocks, for further RNA and histologic analysis. AntagomiRs were obtained from Sigma Aldrich, see Table 3.

[4] = Plasma half-life; assay type: in vivo, mice; conditions: mouse, read-out: plasma t1/2 (converted)

O=C1Nc2cc(C(=O)N3CCC(Cc4ccccc4)CC3)ccc2Nc2ccccc21 [Compound 1]
CC50 [1]: 10.4 µM
Hepatic lipid droplets and TG content ([2]; 50% HFD, 7.5 mg/kg twice a week, 3 weeks): reduced
Body weight, Compound 1 co-administered with antagomiR-122 ([2]; 50% HFD, 3 weeks): returned exactly to that of control animals
Dgat1 (MIR122 target gene) in the liver ([2]; 50% HFD, 3 weeks of treatment): reduced
Energy expenditure (β-hydroxybutyrate plasma level as surrogate marker) ([2]; 50% HFD, 3 weeks of treatment): increases energy expenditure; also recorded: increase
FGF21 (RORα target gene) in the liver ([2]; 50% HFD, 3 weeks of treatment): increased
MIR122 levels in plasma and muscle (secretion) ([2]; 50% HFD, 3 weeks of treatment): enhanced; also recorded: increase of MIR122
Mature MIR122 level in the liver ([2]; 50% HFD, 3 weeks of treatment): no increase
Muscle TG levels ([2]; 50% HFD, 3 weeks of treatment): reduced
pri- and pre-MIR122 in the liver ([2]; 50% HFD, 3 weeks of treatment): increased significantly
Body weight ([2]; 50% HFD, Compound 1 7.5 mg/kg i.p. twice a week, antagomiR once a week, 3 weeks, 7.5 mg/kg): weight steadily decreased; also recorded: reduces body weight; also recorded: significant decrease in body weight
Hepatic RORα level ([2]; HFD-fed mice): increased the RORα level to its level in mice fed normal diet
Gpase6 (G6Pase) mRNA, RORα target gene ([3]; 7.5 mg/kg i.p. once, liver, up to 7 days): significantly up-regulated; also recorded: increase
miR-18 and miR-126 levels (controls) ([3]; 7.5 mg/kg i.p. once, over 7 days): not affected
miR-122 levels in plasma and liver ([3]; 7.5 mg/kg i.p. once, up to 7 days post-injection): increased
Hepatic MIR122 precursors (pri-MIR122 and pre-MIR122) ([3]; single administration): increase
Mature MIR122 levels in WAT, muscle and heart tissues ([3]; single administration): increased significantly
Three MIR122 target genes in heart tissue ([3]; single administration): significantly down-regulated
AldoA, MIR122 target ([3]; single administration, liver): decrease
half-life [4]: 2.7 h

Reference: patent publication US20250339445A1, “Modulators of Orphan Nuclear Receptors for Treating Pancreatitis, Glioblastoma, Sarcopenia and Stroke” (Emory University, priority 2020, published 2025)
